This passage reports T/C results from PubChem BioAssay AID256 (DTP/NCI, 2004).

The test system of the experiment is CD2F1 mice, L1210 leukemia ip, survival T/C. In words: NCI In Vivo Anticancer Drug Screen. Data for tumor model L1210 Leukemia (intraperitoneal) in CD2F1 (CDF1) mice. Conditions: higher = longer survival. An outline of the steps:
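Activity against a transplanted murine tumor was judged by comparing the compound group with a vehicle group. The outcome in the treated animals was divided by that in the controls.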

[1] abbreviates: endpoint: mean survival time, dose: 100.0 mg/kg/injection, schedule: Q01DX001 (ip), vehicle: saline.
Where [2] appears, read: endpoint: mean survival time, dose: 100.0 mg/kg/injection, schedule: Q01DX009 (ip), vehicle: saline with Tween-80.
[3] abbreviates: endpoint: mean survival time, dose: 200.0 mg/kg/injection, schedule: Q04DX003 (ip), vehicle: saline with Tween-80.
Where [4] appears, read: endpoint: mean survival time, dose: 100.0 mg/kg/injection, schedule: Q01DX009 (ip), vehicle: saline.

Several values for one entry are separate records, joined by “and”; a condition that tells them apart may be missing. Identical values can stand only once. Toxic doses and inconclusive results are not listed.

For the molecule `OC(CBr)C(O)C(O)C(O)CBr` (stereo unspecified), the T/C is, setting by setting: (endpoint: mean survival time, dose: 25.0 mg/kg/injection, schedule: Q01DX009 (oral), vehicle: other) 109 % of control; (endpoint: mean survival time, dose: 50.0 mg/kg/injection, schedule: Q01DX009 (oral), vehicle: other) 112 % of control; under setting [1], 103 % of control; (endpoint: mean survival time, dose: 100.0 mg/kg/injection, schedule: Q01DX009 (oral), vehicle: other) 121 % of control; (endpoint: mean survival time, dose: 100.0 mg/kg/injection, schedule: Q04DX003 (ip), vehicle: saline) 101 % of control and 103 % of control; (endpoint: mean survival time, dose: 200.0 mg/kg/injection, schedule: Q01DX001 (ip), vehicle: saline) 101 % of control. The T/C runs as follows: (endpoint: mean survival time, dose: 200.0 mg/kg/injection, schedule: Q04DX003 (ip), vehicle: Klucel (hydroxypropylcellulose) (HPC)) 120 % of control; (endpoint: mean survival time, dose: 200.0 mg/kg/injection, schedule: Q04DX003 (ip), vehicle: saline) 108 % of control; (endpoint: mean survival time, dose: 237.0 mg/kg/injection, schedule: Q04DX003 (ip), vehicle: saline with Tween-80) 94 % of control; (endpoint: mean survival time, dose: 355.55 mg/kg/injection, schedule: Q04DX003 (ip), vehicle: saline with Tween-80) 89 % of control; (endpoint: mean survival time, dose: 400.0 mg/kg/injection, schedule: Q01DX001 (ip), vehicle: saline) 106 % of control; (endpoint: mean survival time, dose: 400.0 mg/kg/injection, schedule: Q01DX009 (oral), vehicle: other) 113 % of control. Moreover, the T/C runs as follows: (endpoint: mean survival time, dose: 400.0 mg/kg/injection, schedule: Q04DX003 (ip), vehicle: saline) 101 % of control and 108 % of control; (endpoint: mean survival time, dose: 533.33 mg/kg/injection, schedule: Q04DX003 (ip), vehicle: saline with Tween-80) 99 % of control; (endpoint: mean survival time, dose: 800.0 mg/kg/injection, schedule: Q04DX003 (ip), vehicle: saline with Tween-80) 94 % of control; (endpoint: mean survival time, dose: 800.0 mg/kg/injection, schedule: Q04DX003 (ip), vehicle: saline) 116 % of control; (endpoint: mean survival time, dose: 1200.0 mg/kg/injection, schedule: Q04DX003 (ip), vehicle: saline with Tween-80) 98 % of control; (endpoint: mean survival time, dose: 1200.0 mg/kg/injection, schedule: Q04DX003 (ip), vehicle: saline) 114 % of control. For the same molecule, the T/C was 103 % of control (endpoint: median survival time, dose: 8.0 mg/kg/injection, schedule: Q03HX024 (ip), vehicle: Klucel (hydroxypropylcellulose) (HPC)); 108 % of control (endpoint: median survival time, dose: 16.0 mg/kg/injection, schedule: Q03HX008 (ip), vehicle: Klucel (hydroxypropylcellulose) (HPC)); 105 % of control (endpoint: median survival time, dose: 16.0 mg/kg/injection, schedule: Q03HX016 (ip), vehicle: Klucel (hydroxypropylcellulose) (HPC)); 106 % of control (endpoint: median survival time, dose: 16.0 mg/kg/injection, schedule: Q03HX024 (ip), vehicle: Klucel (hydroxypropylcellulose) (HPC)); 104 % of control (endpoint: median survival time, dose: 32.0 mg/kg/injection, schedule: Q01DX009 (ip), vehicle: Klucel (hydroxypropylcellulose) (HPC)); 115 % of control (endpoint: median survival time, dose: 32.0 mg/kg/injection, schedule: Q03HX008 (ip), vehicle: Klucel (hydroxypropylcellulose) (HPC)). In addition, the T/C (endpoint: median survival time, dose: 32.0 mg/kg/injection, schedule: Q03HX016 (ip), vehicle: Klucel (hydroxypropylcellulose) (HPC)) is 103 % of control; the T/C (endpoint: median survival time, dose: 32.0 mg/kg/injection, schedule: Q03HX024 (ip), vehicle: Klucel (hydroxypropylcellulose) (HPC)) is 109 % of control; the T/C (endpoint: median survival time, dose: 64.0 mg/kg/injection, schedule: Q01DX009 (ip), vehicle: Klucel (hydroxypropylcellulose) (HPC)) was 105 % of control; the T/C (endpoint: median survival time, dose: 64.0 mg/kg/injection, schedule: Q04DX003 (ip), vehicle: Klucel (hydroxypropylcellulose) (HPC)) was 109 % of control; the T/C (endpoint: median survival time, dose: 120.0 mg/kg/injection, schedule: Q01DX005 (ip), vehicle: Klucel (hydroxypropylcellulose) (HPC)) was 151 % of control and 159 % of control and 163 % of control; the T/C (endpoint: median survival time, dose: 128.0 mg/kg/injection, schedule: Q01DX001 (ip), vehicle: Klucel (hydroxypropylcellulose) (HPC)) is 108 % of control. Further, the T/C was 86 % of control (endpoint: median survival time, dose: 128.0 mg/kg/injection, schedule: Q01DX009 (ip), vehicle: Klucel (hydroxypropylcellulose) (HPC)); 122 % of control (endpoint: median survival time, dose: 128.0 mg/kg/injection, schedule: Q04DX003 (ip), vehicle: Klucel (hydroxypropylcellulose) (HPC)); 109 % of control (endpoint: median survival time, dose: 128.0 mg/kg/injection, schedule: Q08DX002 (ip), vehicle: Klucel (hydroxypropylcellulose) (HPC)); 155 % of control and 162 % of control and 164 % of control (endpoint: median survival time, dose: 180.0 mg/kg/injection, schedule: Q01DX005 (ip), vehicle: Klucel (hydroxypropylcellulose) (HPC)); 151 % of control (endpoint: median survival time, dose: 200.0 mg/kg/injection, schedule: Q04DX003 (ip), vehicle: Klucel (hydroxypropylcellulose) (HPC)); 112 % of control (endpoint: median survival time, dose: 256.0 mg/kg/injection, schedule: Q01DX001 (ip), vehicle: Klucel (hydroxypropylcellulose) (HPC)). Further, the T/C reads like this: (endpoint: median survival time, dose: 256.0 mg/kg/injection, schedule: Q04DX003 (ip), vehicle: Klucel (hydroxypropylcellulose) (HPC)) 109 % of control; (endpoint: median survival time, dose: 256.0 mg/kg/injection, schedule: Q08DX002 (ip), vehicle: Klucel (hydroxypropylcellulose) (HPC)) 114 % of control; (endpoint: median survival time, dose: 270.0 mg/kg/injection, schedule: Q01DX005 (ip), vehicle: Klucel (hydroxypropylcellulose) (HPC)) 100 % of control; (endpoint: median survival time, dose: 300.0 mg/kg/injection, schedule: Q04DX003 (ip), vehicle: Klucel (hydroxypropylcellulose) (HPC)) 155 % of control and 184 % of control and 197 % of control; (endpoint: median survival time, dose: 400.0 mg/kg/injection, schedule: Q04DX003 (ip), vehicle: Klucel (hydroxypropylcellulose) (HPC)) 195 % of control; (endpoint: median survival time, dose: 512.0 mg/kg/injection, schedule: Q01DX001 (ip), vehicle: Klucel (hydroxypropylcellulose) (HPC)) 95 % of control. The T/C (endpoint: median survival time, dose: 512.0 mg/kg/injection, schedule: Q04DX003 (ip), vehicle: Klucel (hydroxypropylcellulose) (HPC)) was 112 % of control and the T/C (endpoint: median survival time, dose: 512.0 mg/kg/injection, schedule: Q08DX002 (ip), vehicle: Klucel (hydroxypropylcellulose) (HPC)) is 122 % of control.
On to `C1CC2OC2C1` (stereo unspecified), for which the T/C reads like this: (endpoint: mean survival time, dose: 100.0 mg/kg/injection, schedule: Q01DX009 (ip), vehicle: acetone) 95 % of control; (endpoint: mean survival time, dose: 200.0 mg/kg/injection, schedule: Q01DX009 (ip), vehicle: acetone) 97 % of control; (endpoint: mean survival time, dose: 400.0 mg/kg/injection, schedule: Q01DX009 (ip), vehicle: acetone) 95 % of control.
In the case of `Cc1[nH]ccc2c(C)c3nc4ccccc4c3cc12`, the T/C is 152 % of control (endpoint: mean survival time, dose: 50.0 mg/kg/injection, schedule: Q01DX009 (ip), vehicle: saline with Tween-80); 117 % of control under setting [2]; 96 % of control under setting [3].
On to `O=C(CBr)Nc1c2c(nc3ccccc13)CCCC2`, for which the T/C was 101 % of control (endpoint: mean survival time, dose: 75.0 mg/kg/injection, schedule: Q01DX001 (ip), vehicle: saline with Tween-80); 104 % of control (endpoint: mean survival time, dose: 150.0 mg/kg/injection, schedule: Q01DX001 (ip), vehicle: saline with Tween-80); 94 % of control (endpoint: mean survival time, dose: 300.0 mg/kg/injection, schedule: Q01DX001 (ip), vehicle: saline with Tween-80).
Take `O=CNc1cccc(Cl)c1`: the T/C under setting [2] is 96 % of control; the T/C (endpoint: mean survival time, dose: 100.0 mg/kg/injection, schedule: Q04DX003 (ip), vehicle: saline with Tween-80) was 100 % of control; the T/C (endpoint: mean survival time, dose: 200.0 mg/kg/injection, schedule: Q01DX009 (ip), vehicle: saline with Tween-80) is 95 % of control; the T/C under setting [3] was 90 % of control; the T/C (endpoint: mean survival time, dose: 400.0 mg/kg/injection, schedule: Q01DX009 (ip), vehicle: saline with Tween-80) was 96 % of control; the T/C (endpoint: mean survival time, dose: 400.0 mg/kg/injection, schedule: Q04DX003 (ip), vehicle: saline with Tween-80) is 90 % of control.
Turning to `CC1(C)N=C(N)N=C(N)N1c1cccc(CCCCc2ccc(S(=O)(=O)F)cc2)c1`, the T/C (endpoint: mean survival time, dose: 25.0 mg/kg/injection, schedule: Q01DX009 (ip), vehicle: saline) was 105 % of control.
With `O=C(CCl)Nc1ccccn1`, the T/C is, setting by setting: under setting [4], 96 % of control; (endpoint: mean survival time, dose: 200.0 mg/kg/injection, schedule: Q01DX009 (ip), vehicle: saline) 102 % of control; (endpoint: mean survival time, dose: 400.0 mg/kg/injection, schedule: Q01DX009 (ip), vehicle: saline) 97 % of control.
With `COc1cc([N+](=O)[O-])c2nc(/C=N/NC(N)=S)ccc2c1`, the T/C under setting [1] is 89 % of control.
As for `CCCN(CCC)CN(CCC)CCC`, the T/C was 98 % of control (endpoint: mean survival time, dose: 50.0 mg/kg/injection, schedule: Q01DX009 (ip), vehicle: saline) and 105 % of control under setting [4].
